{"source": "patent US8597904B2", "about": "“Pharmaceutical compositions for the treatment of conditions responsive to proteasome inhibition” (priority 2007, dated 2013)", "key": {"[1]": {"target": "T1, human erythrocyte 20S proteasomes, caspase-like activity (Homo sapiens, UniProt P28072)", "T1 construct": "which contains human erythrocyte 20S proteasomes; purchased BIOMOL International AK-740; host or cells: human erythrocytes", "test": "20S Proteasome Assay Kit, Z-LLE-AMC substrate", "type": "biochemical", "protocol": "The eukaryotic 20S proteasome contains three catalytic subunits (β1, β2, and (β5) conferring caspase-like, trypsin-like and chymotrypsin-like proteolytic activities, respectively (Borissenko and Groll. 2007. Chem. Rev. 107:687-717, which is incorporated herein by reference in its entirety). Syringolin A was tested as a proteasome inhibitor using the 20S Proteasome Assay Kit for Drug Discovery AK-740 (BIOMOL® International, Plymouth Meeting, PA, USA), which contains human erythrocyte 20S proteasomes, in a 96-well microtiter plate. The fluorogenic substrates Suc-LLVY-AMC, Boc-LRR-AMC, and Z-LLE-AMC (BIOMOL® International) were used to monitor chymotrypsin-like, trypsin-like, and caspase-like activities, respectively. […] The release of free AMC (7-amino-4-methylcoumarin) at 37° C. was monitored with an MWGt Sirius HT fluorescence microplate reader (BIO-TEK® Instruments) equipped with a 360 nm excitation and a 460 nm emission filter. Proteolytic activities were measured as the increase in relative fluorescence units (RFU) over time (FIG. 7A-C). […] The initial velocities (vi) were determined from the time derivative of these curves and plotted versus the corresponding inhibitor concentration ([I]). […] The rate of covalent inhibition (kassociation), which equals kobs/[I] was calculated over the range of inhibitor concentrations given in parentheses in FIG. 7D. […]"}, "SK-N-SH cells": {"system": "SK-N-SH cells", "test": "Cytox-Glo cytotoxicity assay", "type": "cell-based, human", "settings": "for cytotoxicity: 0.25 μM GlbA or 25 μM SylA, 48 hours; for cytotoxicity in the presence of 3-MA: pre-treated with 3-MA", "protocol": "(§1) Determination of potential cytotoxic effects by GlbA and/or […] was carried out by using the Cytox-Glo cytotoxicity assay, which measures “dead cell proteases” from cells that have lost membrane integrity. Briefly, cells were treated with a single concentration of compound for 48 hours in a final volume of 100 μl, after which 50 μl of AAF-Glo luminogenic peptide substrate (alanyl-alanyl-phenylalanyl-aminoluciferin) was added to each well and incubated for 15 min at room temperature. The luminescence was measured by a Dynex MLX luminometer to give a reading of cells with damaged membranes. Next, 50 μl of digitonin was added to each well and the samples incubated for 15 minutes at room temperature. Luminescence was measured a second time to determine total cell number. Controls included cells with vehicle only, media, and media with compound.\n(§2) SK-N-SH cells were treated with 0.25 μM GlbA or 25 μM SylA and SKOV3 cells were treated with 1.0 μM GlbA or 25 μM SylA. As illustrated in FIGS. 16A and 16B, control cells (treated with DMSO and H2O representing GlbA and SylA controls, respectively) were viable and no cytotoxicity was detected.\nTo determine if autophagy plays a role in GlbA/SylA-induced cell death, levels of cytotoxicity in cells pre-treated with 3-methyladenine (3-MA), an established autophagy inhibitor, were measured using the assay described in Example 12."}, "SKOV3 cells": {"system": "SKOV3 cells", "test": "Cytox-Glo cytotoxicity assay", "type": "cell-based, human", "settings": "SKOV3, 1.0 μM GlbA or 25 μM SylA, 48 hours", "protocol": "as §1, §2"}, "TH-MYCN transgenic mouse": {"system": "TH-MYCN transgenic mouse", "test": "chemoprevention in TH-MYCN mouse model of human neuroblastoma", "type": "in vivo", "settings": "homozygous mice, treatment from week 4 or 5, vs untreated mice", "text": "The TH-MYCN transgenic mouse is a well-established neuroblastoma mouse model (Hansfored, et al. 2004. PNAS 101(34):12664-12669; Weiss, et al. 2007. Cancer Res 67(19):9435-9442; Weiss, et al. 2000. Cancer Res 6″2483-2487, each of which is incorporated herein by reference in its entirety). The tumors are caused by targeted expression of MYCN to the neural crest under the control of the rat tyrosine hydroxylase promoter, where the mice develop a tumor phenotype that closely resembles the human disease. The tumors in this strain of mouse generally develop in the abdominal and thoracic areas. TH-MYCN breeder pairs are supplied as hemizygote (129×1/SvJ-Tg(TH-MYCN)41Waw) and a wild type mate (129×1/SvJ).\nTreatment regimen is similar to that described in Example 16. Test compounds are administered to homozygous mice at a dose that is developed based upon the results of the initial dose and toxicity study (Example 15). Two to four doses per compound are administered by i.p. and/or i.v. methods into homozygous mice at week 4 or 5 (in advance of tumor development, which occurs closer to week 7). Vehicle is delivered as a control. Further doses are administered every 72 hours thereafter for 3 to 6 weeks. Between eight to twelve mice are tested in the study for administration of each compound. […] At the conclusion of the study, the mice are sacrificed and tumor size and number of tumors are assessed."}}}
{"smiles": "CC(C)[C@H](NC(=O)N[C@H](C(=O)N[C@H]1/C=C/CCNC(=O)/C=C/[C@H](C(C)C)NC1=O)C(C)C)C(=O)O", "note": "[syringolin A]", "values": [{"measurement": "inhibition of caspase-like activity", "setting": "[1]; 37° C., 100 μM Z-LLE-AMC", "result": "inhibited"}, {"measurement": "cytotoxicity", "setting": "SK-N-SH cells", "result": "~30", "unit": "%"}, {"measurement": "cytotoxicity in the presence of 3-MA", "setting": "SK-N-SH cells", "result": "significantly reduced"}, {"measurement": "cytotoxicity", "setting": "SKOV3 cells", "result": "relatively low levels of cytotoxicity"}, {"measurement": "tumor formation", "setting": "TH-MYCN transgenic mouse", "result": "fewer or no tumors"}]}
{"smiles": "CCCCCCC/C=C/C=C/C(=O)N[C@H](C(=O)N[C@H]1C[C@@H](O)CCNC(=O)/C=C/[C@H](C)NC1=O)[C@@H](C)O", "note": "[glidobactin A]", "values": [{"measurement": "inhibition of caspase-like activity", "setting": "[1]; concentrations tested up to 20 μM", "result": "not inhibited"}, {"measurement": "cytotoxicity", "setting": "SK-N-SH cells", "result": "about 40%"}, {"measurement": "cytotoxicity in the presence of 3-MA", "setting": "SK-N-SH cells", "result": "significantly reduced"}, {"measurement": "cytotoxicity", "setting": "SKOV3 cells", "result": "relatively low levels of cytotoxicity"}, {"measurement": "tumor formation", "setting": "TH-MYCN transgenic mouse", "result": "fewer or no tumors"}]}
